Assay results taken from the NIST ThermoML archive (doi:10.1016/j.fluid.2010.01.002).
Numbers after ± are expanded uncertainties.

Assays:
[1] = 101.33 kPa, Liquid; for viscosity: Capillary tube (Ostwald / Ubbelohde) method; for mass density: Vibrating tube method
[2] = refractive index (Na D-line) (dimensionless); settings: 101.33 kPa, Liquid, Standard Abbe refractometry
[3] = mn = molality of the nth substance listed, in mol/kg; settings: 101 kPa, Liquid, Vibrating tube method

COS(=O)(=O)[O-].Cn1cc[n+](C)c1 [1,3-dimethylimidazolium methylsulfate]
Settings | mass density, [1] [kg/m3] | refractive index, [2] | viscosity, [1] [mPa·s]
298.15 K | 1341.52 ± 0.52 | 1.481 ± 0.0004 | 72.16 ± 0.59
308.15 K | 1334.05 ± 0.52 | 1.4782 ± 0.0004 | 54.42 ± 0.3
318.15 K | 1324.8 ± 0.51 | 1.475 ± 0.0004 | 31.75 ± 0.22
328.15 K | 1320.61 ± 0.5 | 1.4732 ± 0.0004 | 22.75 ± 0.15

COS(=O)(=O)[O-].Cn1cc[n+](C)c1 [1,3-dimethylimidazolium methylsulfate] + CC#N
mass density [kg/m3], [3]
Settings | 298.15 K | 308.15 K | 318.15 K | 328.15 K
m1 = 0.0154 | 778.02 ± 0.13 | 767.2 ± 0.14 | 756.08 ± 0.14 | 745.07 ± 0.14
m1 = 0.0262 | 778.92 ± 0.13 | 768.15 ± 0.14 | 757.02 ± 0.14 | 746.08 ± 0.14
m1 = 0.0367 | 779.78 ± 0.13 | 769.04 ± 0.13 | 757.94 ± 0.14 | 746.91 ± 0.14
m1 = 0.0442 | 780.39 ± 0.13 | 769.64 ± 0.13 | 758.56 ± 0.14 | 747.53 ± 0.14
m1 = 0.0552 | 781.25 ± 0.13 | 770.6 ± 0.13 | 759.47 ± 0.14 | 748.49 ± 0.14
m1 = 0.0697 | 782.39 ± 0.13 | 771.79 ± 0.13 | 760.65 ± 0.14 | 749.74 ± 0.14
m1 = 0.1092 | 785.54 ± 0.13 | 775.06 ± 0.13 | 763.89 ± 0.14 | 753.13 ± 0.14
m1 = 0.1516 | 788.85 ± 0.13 | 778.45 ± 0.13 | 767.29 ± 0.14 | 756.65 ± 0.14
m1 = 0.2159 | 793.88 ± 0.13 | 783.51 ± 0.13 | 772.5 ± 0.13 | 761.83 ± 0.14
m1 = 0.2981 | 799.99 ± 0.12 | 789.92 ± 0.13 | 779.03 ± 0.13 | 768.5 ± 0.14
m1 = 0.4347 | 809.98 ± 0.12 | 799.82 ± 0.13 | 788.98 ± 0.13 | 778.24 ± 0.13
m1 = 0.5442 | 817.8 ± 0.12 | 807.73 ± 0.12 | 797.07 ± 0.13 | 786.34 ± 0.13
m1 = 0.8609 | 839.07 ± 0.12 | 828.64 ± 0.12 | 818.22 ± 0.12 | 808.33 ± 0.13

COS(=O)(=O)[O-].Cn1cc[n+](C)c1 [1,3-dimethylimidazolium methylsulfate] + CN(C)C=O
mass density [kg/m3], [3]
Settings | 298.15 K | 308.15 K | 318.15 K | 328.15 K
m1 = 0.0143 | 945.09 ± 0.1 | 935.57 ± 0.11 | 925.94 ± 0.11 | 916.21 ± 0.11
m1 = 0.0192 | 945.45 ± 0.1 | 935.93 ± 0.11 | 926.32 ± 0.11 | 916.62 ± 0.11
m1 = 0.0305 | 946.29 ± 0.1 | 936.8 ± 0.11 | 927.22 ± 0.11 | 917.63 ± 0.11
m1 = 0.0455 | 947.35 ± 0.1 | 937.9 ± 0.11 | 928.37 ± 0.11 | 918.8 ± 0.11
m1 = 0.06 | 948.34 ± 0.1 | 938.95 ± 0.11 | 929.46 ± 0.11 | 919.9 ± 0.11
m1 = 0.0821 | 949.86 ± 0.1 | 940.49 ± 0.11 | 930.98 ± 0.11 | 921.44 ± 0.11
m1 = 0.1125 | 951.98 ± 0.1 | 942.64 ± 0.11 | 933.15 ± 0.11 | 923.55 ± 0.11
m1 = 0.1679 | 955.78 ± 0.1 | 946.48 ± 0.11 | 937.03 ± 0.11 | 927.44 ± 0.11
m1 = 0.2459 | 961 ± 0.1 | 951.8 ± 0.11 | 942.42 ± 0.11 | 932.69 ± 0.11
m1 = 0.3069 | 964.96 ± 0.1 | 955.78 ± 0.11 | 946.45 ± 0.11 | 936.8 ± 0.11
m1 = 0.6259 | 984.18 ± 0.1 | 975.15 ± 0.11 | 965.75 ± 0.11 | 956.63 ± 0.11

COS(=O)(=O)[O-].Cn1cc[n+](C)c1 [1,3-dimethylimidazolium methylsulfate] + CO
mass density [kg/m3], [3]
Settings | 298.15 K | 308.15 K | 318.15 K | 328.15 K
m1 = 0.0108 | 787.65 ± 0.13 | 778.14 ± 0.13 | 768.55 ± 0.13 | 758.82 ± 0.14
m1 = 0.0199 | 788.47 ± 0.13 | 778.98 ± 0.13 | 769.42 ± 0.13 | 759.7 ± 0.14
m1 = 0.0341 | 789.69 ± 0.13 | 780.24 ± 0.13 | 770.71 ± 0.13 | 761.02 ± 0.14
m1 = 0.0419 | 790.3 ± 0.13 | 780.9 ± 0.13 | 771.38 ± 0.13 | 761.68 ± 0.14
m1 = 0.0531 | 791.11 ± 0.12 | 781.85 ± 0.13 | 772.32 ± 0.13 | 762.63 ± 0.14
m1 = 0.0711 | 792.35 ± 0.12 | 783.26 ± 0.13 | 773.6 ± 0.13 | 764.11 ± 0.13
m1 = 0.0929 | 794.09 ± 0.12 | 784.9 ± 0.13 | 775.34 ± 0.13 | 765.65 ± 0.13
m1 = 0.1212 | 796.29 ± 0.12 | 787.16 ± 0.13 | 777.61 ± 0.13 | 767.99 ± 0.13
m1 = 0.1679 | 799.9 ± 0.12 | 790.82 ± 0.13 | 781.31 ± 0.13 | 771.8 ± 0.13
m1 = 0.2084 | 802.98 ± 0.12 | 793.97 ± 0.12 | 784.46 ± 0.13 | 775.01 ± 0.13
m1 = 0.2504 | 806.12 ± 0.12 | 797.15 ± 0.12 | 787.7 ± 0.13 | 778.32 ± 0.13
m1 = 0.2973 | 809.59 ± 0.12 | 800.65 ± 0.12 | 791.16 ± 0.13 | 781.85 ± 0.13
m1 = 0.3949 | 816.69 ± 0.12 | 807.86 ± 0.12 | 798.36 ± 0.13 | 789.21 ± 0.13
m1 = 0.4965 | 823.95 ± 0.12 | 815.03 ± 0.12 | 805.55 ± 0.12 | 796.68 ± 0.13
m1 = 0.5976 | 831 ± 0.11 | 822.1 ± 0.12 | 812.65 ± 0.12 | 803.73 ± 0.12
m1 = 0.7303 | 839.93 ± 0.11 | 830.93 ± 0.12 | 821.45 ± 0.12 | 812.4 ± 0.12
m1 = 0.9907 | 856.57 ± 0.11 | 847.45 ± 0.11 | 838.09 ± 0.12 | 828.74 ± 0.12
